In one assay the test system is Klf10 expression. The assay can be described thus: Real-time PCR of Kmt2d target gene Klf10 in spleen cells. The class given is in vivo, mouse. Conditions: AR-42 treatment (10 mg/kg/day); FIG. 26. As for the experimental part:
Real-time PCR was performed using Kmt2d-specific probes for exons 20 and 52 (Mm_02600438 and Mm_01717664, respectively) from TaqMan® Gene Expression Assays (Life Technologies, Carlsbad, Calif.). For a comparison of transfection efficiencies for indicator constructs in transient transfection studies, real-time PCR was performed using SYBR Green Real-Time PCR Master Mix (Life Technologies, Carlsbad, Calif.) and primers IND-F-([…]; SEQ ID NO: 5) and IND-R-([…]; SEQ ID NO: 6) that are specific for the H3K4 methylation indicator. For expression analysis for KMT2D target gene KLF10, real-time PCR was performed using Klfl0-specific expression assay (Mm00449812_m1) from TaqMan® Gene Expression Assays (Life Technologies, Carlsbad, Calif.).

In assay [1] the test system is DCX positive cells in the GCL (neurogenesis). The assay can be described thus: Doublecortin (DCX) expression in the GCL (neurogenesis) after oral AR-42. The class given is in vivo, mouse. An excerpt: (§1) Kmt2d^+/βGeo mice, also named Mll2Gt^(RRt024) Byg, were acquired from Bay Genomics (University of California). All experimental mice were on a mixed C57BL/6J and 129/SvEv background. Expected Mendelian ratios were observed when heterozygous animals were bred to wild-type. In heterozygous crosses, however, there was uniform embryonic lethality of homozygotes by ED 12, the earliest developmental stage assayed. For treatment with AR-42, mice were orally gavaged daily with drug (Selleck Chemicals, Houston, Tex.) solubilized in vehicle (0.5% methylcellulose, 0.1% Tween-80, water) or with vehicle alone. Drug delivery information was kindly provided by Drs. Chen and Kulp from Ohio State University (Huang et al. (2011) Mol. Pharmacol. 79:197-20619). Drug was administered for 14 days and mice were sacrificed on day 15. Morris water maze testing was initiated at day 7 and a dose of 10 mg/kg/day was used for these studies. For quantification of DCX positive cells, doses of 0, 5, 10 and 25 mg/kg/day were used. Genotyping was performed using primers B-GeoF-([…]; SEQ ID NO: 1) and B-GeoR-([…]; SEQ ID NO: 2) that are specific for the targeted allele and TcrdF-([…]; SEQ ID NO: 3) and TcrdR-([…]; SEQ ID NO: 4) that control for sufficient DNA concentration. Real-time PCR using the same primers allows discrimination between the heterozygous and homozygous state for the targeted allele. Maxillary protrusion was evaluated by ten investigators blinded to genotype and they were asked to rate maxillary protrusion on radiographs as either large (2) or small (1). […] All experiments were performed using mouse protocols approved by the Animal Care and Use Committee of Johns Hopkins University School of Medicine. The mouse protocols used for this study are in accordance with the guidelines used by the NIH for mouse care and handling.
Every 6th brain section was selected and then blocked with 5% Bovine Serum Albumin (BSA) at room temperature followed by incubation with primary antibodies overnight at 4° C. Secondary antibodies were then applied for 1 hour at room temperature, after which sections were mounted onto microscope slides with Vectamount with DAPI (Vector Laboratories, Burlingame, Calif.). Primary antibodies included Doublecortin (DCX) (SC-8066, Santa Cruz Biotechnology, Dallas, Tex., 1:200 goat), trimethylated H3K4 (9727L, Cell Signaling Technology, Beverly, Mass., 1:500 rabbit), and Kmt2d H-300 (SC-292359, Santa Cruz Biotechnology, Dallas, Tex., 1:500 rabbit). Non-specific binding was not observed when sections were sequentially exposed to serum (or IgG when appropriate) from the same species as the primary antibody for each experiment (i.e. rabbit for KMT2D and H3K4me3 and goat for doublecortin), followed by the secondary antibody used for KMT2D and H3K4me3 (anti-rabbit) or doublecortin (anti-goat, FIG. 29).
The area of both the GCL and DCX+ cells was measured using the NS elements 2.0 software (Nikon, Tokyo, JPN). Normalized DCX area was calculated by measuring the DCX+ area of the GCL and setting the baseline (Kmt2d^+/+) fraction to 1. A Student t-test with significance value set at P<0.05 was used for comparison of DCX+ area referenced to GCL area between genotypes and treatment arms.

In the next assay the test system is Kmt2d+/βGeo mice. The assay can be described thus: Morris water maze (hippocampal memory) in the Kmt2d+/βGeo mouse model of Kabuki syndrome. The assay is classed as in vivo. The following applies: 10 mg/kg/day.
Source text: as §1
Mice were placed in a 1.1 meter diameter tank filled with room temperature water dyed with non-toxic white paint. For analysis purposes, the tank was divided into four quadrants, with one quadrant containing a small platform submerged 1.5 cm beneath the water. On each day of training, mice were placed in the tank in a random quadrant facing away from the center and were allowed to swim until they found the platform and were left there for 30 seconds. […] Each mouse was given 4 trials per day (for 5 days) with no inter-trial interval and subsequently returned to its home cage. Latency to reach the platform was measured during each trial. The day after the final day of training, the platform was removed for a probe trial where mice were placed in the tank for 90 s. Average number of crossings of the platform's previous location was recorded. Visible/flagged platform training was also performed for 3 days either before the hidden platform or after the probe trial, where a visible flag was placed on the submerged platform, and the time for each mouse to reach the platform was measured for each 60 second trial, four of which were run in the same way as the hidden platform training. For all training and probe testing, data was recorded both manually and electronically with ANY-maze software (San Diego Instruments, San Diego, Calif.) when applicable. All data were collected and analyzed by an individual blinded to genotype and treatment group. Differences in the number of platform crossings during the probe trial were compared between groups with a Student's t-test with significance value set at P<0.05.

“Also recorded” adds a separate entry of the source.

Regarding `CC(C)[C@H](C(=O)Nc1ccc(C(=O)NO)cc1)c1ccccc1` [AR-42, (S)—N-hydroxy-4-(3-methyl-2-phenylbutanamido)benzamide], the “Klf10 expression in spleen cells of Kmt2d+/βGeo mice” value in the assay on Klf10 expression is “normalization of expression of Klf10; also recorded: normalized”. Moreover, the “DCX expression in the GCL” value in assay [1] (10 mg/kg/day, older (5-6 months) Kmt2d+/βGeo mice, FIG. 24D) was “improved”; in assay [1] (25 mg/kg/day, Kmt2d+/+ animals, FIG. 24C), “reduced DCX expression”; in assay [1] (25 mg/kg/day, Kmt2d+/βGeo mice, FIG. 24C) it was “did not improve DCX expression”; in assay [1] (25 mg/kg/day, young (1-2 month) and old (5-6 month) Kmt2d+/+ and Kmt2d+/βGeo mice), “decreased DCX expression”; in assay [1] (5 and 10 mg/kg/day, Kmt2d+/+ (preservation) or Kmt2d+/βGeo (restoration), both age groups), “preservation or restoration of DCX expression”. Moreover, the “difference in normalized DCX expression between mutant and wild-type animals” value in assay [1] (10 mg/kg/day, one to two month old mice) was “no difference between mutant and wild-type animals”. Further, the “postnatal neurogenesis in the granule cell layer of the dentate gyrus (overall statement)” value in assay [1] (mouse model of KS, ages 1-2 months and 5-6 months) is on record as “beneficial effect; also recorded: rescued postnatal neurogenesis”. Besides, the “neurogenesis (normalized DCX expression)” value in assay [1] (one to two month old Kmt2d+/βGeo mice, 0-10 mg/kg/day, FIG. 25C, 25D) is given as “dose-dependent increase in neurogenesis”. In addition, the “functional studies outcome by dose” value in the assay on Kmt2d+/βGeo mice is reported as “most improvement in functional studies”. In addition, in the assay on Kmt2d+/βGeo mice (FIG. 12B), the “escape latency during training, Kmt2d+/βGeo vs Kmt2d+/+ both on drug” value is “No significant difference is observed”. Also, the “escape latency during training, Kmt2d+/βGeo animals with vs without drug” value with Kmt2d+/βGeo mice (FIG. 12D) is on record as “No significant difference is observed”. Further, the “frequency of platform crossing during probe trial, Kmt2d+/βGeo mice” value in the assay on Kmt2d+/βGeo mice (FIG. 25F) was “normalized”. Further, in the assay with Kmt2d+/βGeo mice (P<0.01, FIG. 12C), the “escape latency during training, Kmt2d+/+ animals with vs without drug” value is “significant difference”. The “platform crossing during probe trial, both Kmt2d+/+ and Kmt2d+/βGeo mice” value in the assay with Kmt2d+/βGeo mice (greater response in Kmt2d+/βGeo, FIG. 25F) is “improved performance”.

(Values after patent US11357748B2, “Methods for treating mendelian disorders of the epigenetic machinery” (THE JOHNS HOPKINS UNIVERSITY, priority 2014, dated 2022).)
